As a reminder, the EC50 is the concentration that produces a half-maximal response. The term melting point denotes the temperature, or range, at which the solid turns liquid.

One data set concerns the target hRXRβ (Homo sapiens, UniProt P28702). To be noted: read-out: EC50 for the hRXRβ isoform; cited from earlier work.

Sequence of hRXRβ (P28702 whole entry, canonical isoform): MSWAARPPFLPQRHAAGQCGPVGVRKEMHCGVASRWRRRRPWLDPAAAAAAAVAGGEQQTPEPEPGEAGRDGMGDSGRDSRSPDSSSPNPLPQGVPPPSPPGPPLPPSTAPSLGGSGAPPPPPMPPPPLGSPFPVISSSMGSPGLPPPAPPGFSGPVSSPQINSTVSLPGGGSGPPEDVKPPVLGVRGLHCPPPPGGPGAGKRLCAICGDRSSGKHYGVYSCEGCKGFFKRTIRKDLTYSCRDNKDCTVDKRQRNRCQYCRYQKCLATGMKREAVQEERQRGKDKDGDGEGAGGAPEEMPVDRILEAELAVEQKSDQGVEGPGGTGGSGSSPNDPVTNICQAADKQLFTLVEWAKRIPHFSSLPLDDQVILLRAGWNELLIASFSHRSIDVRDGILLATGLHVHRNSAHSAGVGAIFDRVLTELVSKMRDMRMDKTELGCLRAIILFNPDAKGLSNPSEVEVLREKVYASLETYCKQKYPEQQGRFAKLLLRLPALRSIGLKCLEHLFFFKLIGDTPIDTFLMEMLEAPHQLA

On to `Cc1cc2c(cc1-c1cc(/C=C/C(=O)O)ccc1O)C(C)(C)CCC2(C)C` [CD3254], for which the EC50 at hRXRβ is approximately 10 nM.
Consider `CCN(c1ccc2c(c1)C(C)(C)CCC2(C)C)c1ccc(C(=O)O)cn1` [Example 1, 6-(ethyl(5,5,8,8-tetramethyl-5,6,7,8-tetrahydronaphthalen-2-yl)amino)nicotinic acid], for which the melting point fell in the range of 230 to 232 °C.
In the case of `CCN(c1ccc(C(=O)O)cc1)c1ccc2c(c1)C(C)(C)CCC2(C)C` [Example 2, 4-(Ethyl(5,5,8,8-tetramethyl-5,6,7,8-tetrahydronaphthalen-2-yl)amino)benzoic acid], the melting point was in the range of 247.8 to 250.6 °C.
Still for that read-out and setting: for `CCN(c1ccc(C(=O)O)cc1)c1cc2c(cc1C)C(C)(C)CCC2(C)C` [Example 3, 4-(Ethyl(3,5,5,8,8-pentamethyl-5,6,7,8-tetrahydronaphthalen-2-yl)amino)benzoic acid] the value was 252.4 to 256.8 °C.
The compound `CCN(c1ncc(C(=O)O)cn1)c1cc2c(cc1C)C(C)(C)CCC2(C)C` [Example 6, 2-(Ethyl(3,5,5,8,8-pentamethyl-5,6,7,8-tetrahydronaphthalen-2-yl)amino)pyrimidine-5-carboxylic acid] returned a melting point of 231.9 to 233.1 °C.
Still for that read-out and setting: for `CCN(c1ccc2c(c1)C(C)(C)CCC2(C)C)c1cnc(C(=O)O)cn1` [Example 7, 5-(Ethyl(5,5,8,8-tetramethyl-5,6,7,8-tetrahydronaphthalen-2-yl)amino)pyrazine-2-carboxylic acid] the value was 213.1 to 214.4 °C.
Consider `CCN(c1cnc(C(=O)O)cn1)c1cc2c(cc1C)C(C)(C)CCC2(C)C` [Example 8, 5-(Ethyl(3,5,5,8,8-pentamethyl-5,6,7,8-tetrahydronaphthalen-2-yl)amino)pyrazine-2-carboxylic acid], for which the melting point fell in the range of 203.6 to 205.1 °C.
On the same count and under the same terms, for `CCN(c1ccc(C(=O)O)c(F)c1)c1ccc2c(c1)C(C)(C)CCC2(C)C` [Example 9, 4-(Ethyl(5,5,8,8-tetramethyl-5,6,7,8-tetrahydronaphthalen-2-yl)amino)-2-fluorobenzoic acid] the value was 252.4 to 256.8 °C; for `CCN(c1ccc(C(=O)O)c(F)c1)c1cc2c(cc1C)C(C)(C)CCC2(C)C` [Example 10, 4-(Ethyl(3,5,5,8,8-pentamethyl-5,6,7,8-tetrahydronaphthalen-2-yl)amino)-2-fluorobenzoic acid], 241.4 to 243.8 °C.
